Results: US20250011869A1, “TLR3 INHIBITORS FOR USE IN THE TREATMENT OF DISEASES ASSOCIATED WITH CARDIOVASCULAR CALCIFICATION” (priority 2021, published 2025)
“Also recorded” adds a separate entry of the source. Blank lines part the entries; values can stand above or below the molecule they belong to.

Tests used:
VICs = assay: Calcification assay of VICs in osteogenic medium (Alizarin Red S, alkaline phosphatase); assay type: cell-based, human; details: VICs in osteoblastic medium; for calcification / production of calcific nodules: Poly(I:C) 20 μg/mL or inhibitor 26 μM, Alizarin Red S
Experimental: For functional evaluation of osteoblastic activity, VICs were subjected to a calcification assay. Cells were cultured in osteogenic medium including 10 mmol/L beta-glycerophosphate, 10 nmol/L vitamin D3, and 10 nmol/L dexamethasone as described previously^4. The medium was changed every three days. Subsequently, supernatant was analyzed for alkaline phosphatase activity using the commercially available alkaline phosphatase assay kit (Abcam, Cambridge, UK). After careful rinsing with PBS, cells were fixed with 4% paraformaldehyde, washed with distilled water and Alizarin Red S staining solution (Alfa Aesar, Haverhill, MA) was added upon the fixed cells for 20 minutes at room temperature (RT). Imaging of the staining was performed using a Zeiss Axioplan 2 microscope (Zeiss, Oberkochen, Germany). Images were processed using Adobe Photoshop CS5.1 for Mac (Adobe Systems Inc., San Jose, CA, USA) and analyzed with ImageJ software (National Institutes of Health, Bethesda, […]).

zebrafish (Danio rerio) = assay: Zebrafish VitD3-induced calcification model; assay type: in vivo; details: larvae from 5 dpf, 5 days; for VitD3-induced calcification on co-incubation: VitD3 200 ng/mL with TLR3-inhibitor 5 μg/mL, opercle and all bone structures
Experimental: Fish were maintained and raised under standard husbandry conditions. VitD3 treatments were performed as previously described^26 with some minor modifications. Briefly: 15 animals (5 dpf) were pooled per 6-well pate and incubated for 5 days at 28° C. in 4 ml E3 medium containing 0.1% DMSO and different compounds as indicated. Larvae were fixed in 4% PFA overnight. Final concentration of compounds was 5 μg/mL for TLR3-inhibitor (Merck, Darmstadt, Germany) and 200 ng/mL VitD3 (Sigma, St. Louis, MO). Dilutions were generated from stock solutions with 10 mg/mL TLR3-INH and 200 mg/mL VitD3 in DMSO. Solutions containing VitD3 were changed every day. All experiments were done in duplicates. Alizarin Red stains were performed as described previously^27 with some minor modifications. After staining larvae were transferred to 100% glycerol and imaged. Area measurements were carried out as described^28.
Whole area: For each larva three independent ventral view images were taken with a Leica MZ16FA using standardized stereomicroscope settings. After each image the larvae were embedded anew. Data quantification was done with ImageJ. Standard white balance was used for background subtraction. Image were converted to greyscale (8 bit) and threshold was set to 225. The stained area excluding the otoliths was measured.
Opercula area: Larvae were imaged laterally from both sides using a standard microscope setting. Area measurements were performed as described above.

TLR3 = TLR3 (Homo sapiens, UniProt O15455); assay: HEK293 hTLR3 reporter cell assay (TLR3/ISRE LUCPorter, luminometer); assay type: cell-based; details: putative ligands at increasing concentrations, 24 h (biglycan 5, 10, 20 μg/ml)
Experimental: All cells were cultivated under standard conditions (37° C., supplied with 5% CO2). Passaging of the cells was performed at 70-90% confluency, and cells were only used until passage 7 as described previously^6. Polyinosinic: polycytidylic acid (Poly(I:C); Invivogen, San Diego, CA) was used to stimulate cells at a concentration of either 20 μg/mL or 5 μg/ml, depending on the assay. For blockade of TLR3, the commercially available dsRNA/TLR3 inhibitor ((R)-2-(3-Chloro-6-fluorobenzo [b] thiophene-2-carboxamido)-3-phenyl-propanoic acid) was used (Merck, Darmstadt, Germany) at a concentration of 1 μg/ml as described previously^1,7. LY294002 (Invivogen, San Diego, CA), a PI3K inhibitor, was used at a concentration of 10 μM. For blockade of IFNAR1, a specific blocking antibody (Invitrogen, Carlsbad, CA) was used at a concentration of 4 μg/ml. A stable HEK (human embryonic kidney) reporter cell line (TLR3/ISRE LUCPorter; Imgenex, USA) was purchased for luminometer assay experiments. Cells were cultivated according to the manufacturer's protocol in DMEM with 4.5 g/L glucose (Lonza, Switzerland), 10% FCS (Sigma, St. Louis, MO), penicillin/streptomycin, and 4 mM L-glutamine and […] puromycin (Gibco, USA) as selection agent. Reporter experiments were performed as described previously^8. […]

[1] = biological target: T1, recombinant human TLR3 ectodomain (huTLR3-ECD), residues 27-700, C-terminal 6x His tag (human, UniProt O15455 27-700); assay: size-exclusion chromatography of the mixed proteins, fractions immunoblotted
T1 construct: also called purified TLR3 ectodomain; hTLR3-ECD
Experimental: To obtain core protein of bovine biglycan, purchased biglycan (Sigma, St. Louis, MO) was incubated with Chondroitinase ABC (Merck, Darmstadt, Germany) at 37° C. for 2 h. Digestion of chondroitin sulfate was verified by electrophoresis and subsequent Coomassie-staining. To 185 μl of digested BGN (0.5 mg/ml) 15 μl of TLR3 (1 mg/ml) was added and incubated on ice for 30 min. The sample was subjected to size exclusion chromatography (Supedex200 increased 10/300 GL column) using 20 mM HEPES pH7.5 100 mM NaCl as running buffer. Fractions were collected and analyzed by Immunoblotting as described above.

activation of TLR3 reporter cells (TLR3): did not activate TLR3
B1: rhBGN: BGN lacking chondroitin sulfate chains (protein)
chain (part 1 of 2): HHHHHH
chain (part 2 of 2): DEEASGADTSGVLDPDSVTPTYSAMCPFGCHCHLRVVQCSDLGLKSVPKEISPDTTLLDLQNNDISELRKDDFKGLQHLYALVLVNNKISKIHEKAFSPLRKLQKLYISKNHLVEIPPNLPSSLVELRIHDNRIRKVPKGVFSGLRNMNCIEMGGNPLENSGFEPGAFDGLKLNYLRISEAKLTGIPKDLPETLNELHLDHNKIQAIELEDLLRYSKLYRLGLGHNQIRMIENGSLSFLPTLRELHLDNNKLARVPSGLPDLKLLQVVYLHSNNITKVGVNDFCPMGFGVKRAYYNGISLFNNPVPYWEVQPATFRCVTDRLAIQFGNYKK
modifications: left off: small tags and cut ends
notes: BGN lacking chondroitin sulfate chains

binding result [1]: binds
B2: core protein of bovine biglycan (purchased biglycan, Sigma, digested with Chondroitinase ABC) (ligand, UniProt P21809 38-369, looked up)
chain: DEEASGAETTSGIPDLDSLPPTYSAMCPFGCHCHLRVVQCSDLGLKAVPKEISPDTTLLDLQNNDISELRKDDFKGLQHLYALVLVNNKISKIHEKAFSPLRKLQKLYISKNHLVEIPPNLPSSLVELRIHDNRIRKVPKGVFSGLRNMNCIEMGGNPLENSGFEPGAFDGLKLNYLRISEAKLTGIPKDLPETLNELHLDHNKIQAIELEDLLRYSKLYRLGLGHNQIRMIENGSLSFLPTLRELHLDNNKLSRVPAGLPDLKLLQVVYLHTNNITKVGVNDFCPVGFGVKRAYYNGISLFNNPVPYWEVQPATFRCVTDRLAIQFGNYKK
modifications: chondroitin sulfate removed by Chondroitinase ABC digestion
notes: also called digested BGN; BGN

The next lines start with the molecule.

Molecule: O=C(N[C@H](Cc1ccccc1)C(=O)O)c1sc2cc(F)ccc2c1Cl [TLR3 inhibitor, (R)-2-(3-Chloro-6-fluorobenzo [b]thiophene-2-carboxamido)-3-phenyl-propanoic acid]
calcification / production of calcific nodules (VICs): reduced calcification | calcification / production of calcific nodules (VICs; listed as dsRNA/TLR3 complex inhibitor): reduced | alkaline phosphatase (ALP) activity (VICs; supernatant): reduced | VitD3-induced calcification on co-incubation (zebrafish (Danio rerio)): reduced calcification; also recorded: abolished | VitD3-induced calcification on co-incubation (zebrafish (Danio rerio); listed as Tlr3 inhibitor): severely impaired calcification of the skeleton

Molecule: C=C1CC[C@H](O)C/C1=C/C=C1\CCC[C@]2(C)[C@@H]([C@H](C)CCCC(C)C)CC[C@@H]12 [VitD3, vitamin D3]
calcification of landmark bones (zebrafish (Danio rerio); VitD3 200 ng/mL alone): early and strong calcification of landmark bones
